Test results taken from ChEMBL document CHEMBL1145608, “Selective androgen receptor modulators based on a series of 7H-[1,4]oxazino[3,2-g]quinolin-7-ones with improved in vivo activity” (Bioorg Med Chem Lett, 2008).
pEC50, pIC50, pKi: −log10 of the molar value. Calls of active or inactive are those of the source. The rule behind the calls is not given here.

Assays:
Androgen receptor [1] = target: T1, Androgen receptor (Homo sapiens, UniProt P10275); experiment: biochemical
T1 sequence (P10275 whole entry): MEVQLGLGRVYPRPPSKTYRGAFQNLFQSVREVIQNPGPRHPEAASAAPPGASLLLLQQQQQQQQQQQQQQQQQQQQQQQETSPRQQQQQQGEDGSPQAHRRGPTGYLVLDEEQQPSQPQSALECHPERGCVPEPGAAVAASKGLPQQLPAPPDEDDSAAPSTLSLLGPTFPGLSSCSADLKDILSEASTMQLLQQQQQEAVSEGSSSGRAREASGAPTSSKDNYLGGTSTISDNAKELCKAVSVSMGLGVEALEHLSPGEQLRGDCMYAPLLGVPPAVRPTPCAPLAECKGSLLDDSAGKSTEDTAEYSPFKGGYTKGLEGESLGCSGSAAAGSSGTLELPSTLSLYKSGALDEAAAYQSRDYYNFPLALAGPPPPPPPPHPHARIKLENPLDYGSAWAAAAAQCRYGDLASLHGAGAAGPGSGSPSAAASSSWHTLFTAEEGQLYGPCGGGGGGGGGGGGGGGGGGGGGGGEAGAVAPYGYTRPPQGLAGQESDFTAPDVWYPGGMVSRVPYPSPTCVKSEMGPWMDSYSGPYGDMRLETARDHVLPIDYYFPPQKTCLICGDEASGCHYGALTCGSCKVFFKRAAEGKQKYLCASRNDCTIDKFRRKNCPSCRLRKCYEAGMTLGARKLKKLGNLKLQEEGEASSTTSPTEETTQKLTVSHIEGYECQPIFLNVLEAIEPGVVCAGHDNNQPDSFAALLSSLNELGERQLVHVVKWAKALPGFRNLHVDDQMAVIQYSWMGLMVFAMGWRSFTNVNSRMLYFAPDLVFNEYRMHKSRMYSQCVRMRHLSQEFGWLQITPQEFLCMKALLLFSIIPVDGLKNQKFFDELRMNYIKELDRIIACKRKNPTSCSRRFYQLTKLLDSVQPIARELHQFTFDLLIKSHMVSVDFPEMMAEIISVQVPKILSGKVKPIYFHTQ
Description: Displacement of [3H]DHT from human Androgen receptor in human MDA-MB-453 cells

Androgen receptor [2] = target: T1, Androgen receptor
Description: Antagonist activity at human androgen receptor in CV1 cells by transcriptional activation assay

Androgen receptor [3] = target: T1, Androgen receptor; remark: listed apart in the source
Description: Agonist activity at human androgen receptor in CV1 cells by transcriptional activation assay

[4] = Metabolic stability in rat liver microsome at 5 uM; type: ADME; details: liver microsomes
Rattus norvegicus [5] = experiment: Effect on Levator ani muscle weight maintenance in orchidectomized Sprague-Dawley rat at 10 mg/kg, po; type: functional, organism-based; set-up: dose 10 mg/kg
Rattus norvegicus [6] = experiment: Effect on Levator ani muscle weight maintenance in orchidectomized Sprague-Dawley rat at 3 mg/kg, po; type: functional, organism-based; set-up: dose 3 mg/kg

For `O=c1cc(C(F)(F)F)c2cc3c(cc2[nH]1)OC[C@@H](CO)N3CC(F)(F)F`, the pKi (Androgen receptor [1]) was 7.82, the pIC50 (Androgen receptor [2]) was 7.22 and the pEC50 (Androgen receptor [3]) was 7.96.

`O=c1cc(C(F)(F)F)c2cc3c(cc2[nH]1)OC[C@H](CO)N3CC(F)(F)F` showed a pKi (Androgen receptor [1]) of 7.66, a pIC50 (Androgen receptor [2]) of 6.78 and a pEC50 (Androgen receptor [3]) of 8.18.

In the case of `Cc1ccc([C@@H]2COc3cc4[nH]c(=O)cc(C(F)(F)F)c4cc3N2CC(F)(F)F)cc1`, the pEC50 (Androgen receptor [3]) was 7.44.

For `O=c1cc(C(F)(F)F)c2cc3c(cc2[nH]1)OC[C@H](CF)N3CC(F)(F)F`, the half-life at 5 µM [4] was 34 min, the pKi (Androgen receptor [1]) was 8.59 and the Activity (Rattus norvegicus [5]) was “Active”. The pEC50 (Androgen receptor [3]) was 8.42.

In the case of `O=c1cc(C(F)(F)F)c2cc3c(cc2[nH]1)OC[C@@H](CC(F)(F)F)N3CC(F)(F)F`, the pKi (Androgen receptor [1]) was 7.74 and the pEC50 (Androgen receptor [3]) was 7.64.

In the case of `O=c1cc(C(F)(F)F)c2cc3c(cc2[nH]1)OC[C@@H](CF)N3CC(F)(F)F`, the pKi (Androgen receptor [1]) was 7.49, the pIC50 (Androgen receptor [2]) was 6.70 and the pEC50 (Androgen receptor [3]) was 7.46.

`O=c1cc(C(F)(F)F)c2cc3c(cc2[nH]1)OC[C@@H](c1ccccc1)N3CC(F)(F)F` showed a pKi (Androgen receptor [1]) of 8.89 and a pEC50 (Androgen receptor [3]) of 8.28.

In the case of `Cc1cccc([C@@H]2COc3cc4[nH]c(=O)cc(C(F)(F)F)c4cc3N2CC(F)(F)F)c1`, the pKi (Androgen receptor [1]) was 8.96 and the pEC50 (Androgen receptor [3]) was 7.72.

With `CCOCC1COc2cc3[nH]c(=O)cc(C(F)(F)F)c3cc2N1CC(F)(F)F` (racemic) the pEC50 (Androgen receptor [3]) was 8.49.

For `O=c1cc(C(F)(F)F)c2cc3c(cc2[nH]1)OCC(C(F)(F)F)N3CC(F)(F)F` (racemic), the pKi (Androgen receptor [1]) was 8.08 and the pEC50 (Androgen receptor [3]) was 8.23.

In the case of `O=c1cc(C(F)(F)F)c2cc3c(cc2[nH]1)OC[C@H](C(F)(F)F)N3CC(F)(F)F`, the Activity (Rattus norvegicus [6]) was “Active”, the half-life at 5 µM [4] was 100 min and the pKi (Androgen receptor [1]) was 8.23. For the same compound, the pEC50 (Androgen receptor [3]) was 8.70.

In the case of `COC[C@@H]1COc2cc3[nH]c(=O)cc(C(F)(F)F)c3cc2N1CC(F)(F)F`, the pKi (Androgen receptor [1]) was 8.03 and the pEC50 (Androgen receptor [3]) was 8.70.

In the case of `CSCC1COc2cc3[nH]c(=O)cc(C(F)(F)F)c3cc2N1CC(F)(F)F` (racemic), the pIC50 (Androgen receptor [2]) was 7.60 and the pEC50 (Androgen receptor [3]) was 7.55.

Work on `O=c1cc(C(F)(F)F)c2cc3c(cc2[nH]1)OC[C@@H](C(F)(F)F)N3CC(F)(F)F` yielded a pKi (Androgen receptor [1]) of 6.55, a pIC50 (Androgen receptor [2]) of 7.47 and a pEC50 (Androgen receptor [3]) of 7.38.

`Cc1ccc([C@H]2COc3cc4[nH]c(=O)cc(C(F)(F)F)c4cc3N2CC(F)(F)F)cc1` gave a pIC50 (Androgen receptor [2]) of 7.36.

Work on `O=c1cc(C(F)(F)F)c2cc3c(cc2[nH]1)OC[C@H](c1ccccc1)N3CC(F)(F)F` yielded a pKi (Androgen receptor [1]) of 6.82 and a pIC50 (Androgen receptor [2]) of 6.47.

For `Cc1cccc([C@H]2COc3cc4[nH]c(=O)cc(C(F)(F)F)c4cc3N2CC(F)(F)F)c1`, the pKi (Androgen receptor [1]) was 6.74 and the pIC50 (Androgen receptor [2]) was 6.24.

In the case of `CSCC[C@@H]1COc2cc3[nH]c(=O)cc(C(F)(F)F)c3cc2N1CC(F)(F)F`, the pKi (Androgen receptor [1]) was 8.62 and the pEC50 (Androgen receptor [3]) was 7.64.

`CCCOCC1COc2cc3[nH]c(=O)cc(C(F)(F)F)c3cc2N1CC(F)(F)F` (racemic) showed a pEC50 (Androgen receptor [3]) of 8.38.

`COC[C@H]1COc2cc3[nH]c(=O)cc(C(F)(F)F)c3cc2N1CC(F)(F)F` showed a pKi (Androgen receptor [1]) of 6.96, a pIC50 (Androgen receptor [2]) of 7.77 and a pEC50 (Androgen receptor [3]) of 7.11.

Work on `O=c1cc(C(F)(F)F)c2cc3c(cc2[nH]1)OCC(C(F)F)N3CC(F)(F)F` (racemic) yielded a pKi (Androgen receptor [1]) of 8.18 and a pEC50 (Androgen receptor [3]) of 8.89.

`N#CCC1COc2cc3[nH]c(=O)cc(C(F)(F)F)c3cc2N1CC(F)(F)F` (racemic) showed a pKi (Androgen receptor [1]) of 7.74 and a pEC50 (Androgen receptor [3]) of 7.52.

In the case of `O=c1cc(C(F)(F)F)c2cc3c(cc2[nH]1)OC[C@@H](Cc1ccccc1)N3CC(F)(F)F`, the pIC50 (Androgen receptor [2]) was 7.29.
